# From patent US20170231928A1, “SOLID COMPOSITION OF FINGOLIMOD AND PREPARATION THEREOF” (SUNSHINE LAKE PHARMA CO., LTD., priority 2014, published 2017)
# Test: Excipient compatibility test: API and diluents, related substances
# Format: physicochemical
# Procedure: Some API and excipients mixture were weighed, placed in the vials, added with appropriate amount of purified water (w/w), and then sealed (simulated hot and humid environment) and placed in 60° C. oven. Sampled on the 10th day, and tested the content (%) of the related substances (single impurity and total impurities).
# [1] = After 10 days (60° C.), water added, sealed
structure (smiles),measurement,setting,value
"CCCCCCCCc1ccc(CCC(N)(CO)CO)cc1 [API, 2-amino-2-[2-(4-octylphenyl)ethyl]propan-1,3-diol]",Related substances RRT = 0.84,0 day,0.06%
same,Related substances Total impurities,0 day,0.06%
same,Related substances RRT = 0.84,[1],0.07%
same,Related substances RRT = 1.35,[1],0.03%
same,Related substances Total impurities,[1],0.10%
